Laboratory results reported in patent US7205295B2, “Benzoxazin-3-ones and derivatives thereof as therapeutic agents” (Warner-Lambert Company LLC, priority 2002, dated 2007).

Biological target: T1, PI3Kγ (p101/p110γ protein) (Homo sapiens, UniProt P48736)
T1 construct: HA; made in house; host or cells: Spodoptera frugiperda (Sf9) cells, baculovirus co-infection
Assay: PI3Kγ In Vitro Kinase Assay
Format: biochemical
Conditions: purified recombinant p101/p110γ with G protein β1/γ2 subunits; 20 μM ATP, 25 μM PIP2; 20 minutes at room temperature
In short: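 Reactions ran 20 min at room temperature, pairing lipid micelles (25 μM PIP2, 300 μM PE, 0.02% Na-cholate, 10 mM MgCl2) with 20 μM ATP including [γ-32P]ATP. The enzyme was recombinant p101/p110γ (2.7 nM) with G protein β1/γ2 (57.7 nM). [32P]PIP3 product was stopped with H3PO4, filtered and scintillation counted.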

T1 sequence (P48736 whole entry, species assumed): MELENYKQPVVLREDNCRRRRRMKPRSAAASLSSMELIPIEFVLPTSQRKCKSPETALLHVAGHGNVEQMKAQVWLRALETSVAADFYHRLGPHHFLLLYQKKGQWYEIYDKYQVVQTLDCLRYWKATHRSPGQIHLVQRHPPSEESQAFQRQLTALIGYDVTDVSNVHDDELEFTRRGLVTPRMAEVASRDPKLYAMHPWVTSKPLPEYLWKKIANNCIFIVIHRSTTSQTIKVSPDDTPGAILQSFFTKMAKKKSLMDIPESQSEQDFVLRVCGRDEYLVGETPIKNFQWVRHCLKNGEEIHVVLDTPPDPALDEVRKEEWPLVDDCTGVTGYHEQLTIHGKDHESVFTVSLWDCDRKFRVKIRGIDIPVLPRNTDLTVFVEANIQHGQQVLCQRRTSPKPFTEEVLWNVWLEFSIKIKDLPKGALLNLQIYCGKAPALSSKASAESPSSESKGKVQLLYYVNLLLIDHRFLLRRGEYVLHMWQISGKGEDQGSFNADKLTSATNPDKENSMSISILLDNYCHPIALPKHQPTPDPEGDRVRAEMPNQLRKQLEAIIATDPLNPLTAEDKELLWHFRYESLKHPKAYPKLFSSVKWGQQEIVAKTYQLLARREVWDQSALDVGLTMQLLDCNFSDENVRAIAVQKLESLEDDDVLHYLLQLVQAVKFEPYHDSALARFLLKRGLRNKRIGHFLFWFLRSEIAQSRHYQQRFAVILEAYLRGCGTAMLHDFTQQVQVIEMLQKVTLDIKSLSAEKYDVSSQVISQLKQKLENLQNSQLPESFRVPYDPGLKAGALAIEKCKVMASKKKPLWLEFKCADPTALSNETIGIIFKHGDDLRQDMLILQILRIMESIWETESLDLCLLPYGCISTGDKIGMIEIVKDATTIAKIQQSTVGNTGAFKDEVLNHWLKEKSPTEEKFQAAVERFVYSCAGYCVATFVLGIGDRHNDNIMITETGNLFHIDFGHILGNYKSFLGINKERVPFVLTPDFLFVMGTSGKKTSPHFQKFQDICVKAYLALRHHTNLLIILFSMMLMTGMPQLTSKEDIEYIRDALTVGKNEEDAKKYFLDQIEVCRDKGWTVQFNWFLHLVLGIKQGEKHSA
T1 sequence (Q8WYR1 whole entry partner, species assumed): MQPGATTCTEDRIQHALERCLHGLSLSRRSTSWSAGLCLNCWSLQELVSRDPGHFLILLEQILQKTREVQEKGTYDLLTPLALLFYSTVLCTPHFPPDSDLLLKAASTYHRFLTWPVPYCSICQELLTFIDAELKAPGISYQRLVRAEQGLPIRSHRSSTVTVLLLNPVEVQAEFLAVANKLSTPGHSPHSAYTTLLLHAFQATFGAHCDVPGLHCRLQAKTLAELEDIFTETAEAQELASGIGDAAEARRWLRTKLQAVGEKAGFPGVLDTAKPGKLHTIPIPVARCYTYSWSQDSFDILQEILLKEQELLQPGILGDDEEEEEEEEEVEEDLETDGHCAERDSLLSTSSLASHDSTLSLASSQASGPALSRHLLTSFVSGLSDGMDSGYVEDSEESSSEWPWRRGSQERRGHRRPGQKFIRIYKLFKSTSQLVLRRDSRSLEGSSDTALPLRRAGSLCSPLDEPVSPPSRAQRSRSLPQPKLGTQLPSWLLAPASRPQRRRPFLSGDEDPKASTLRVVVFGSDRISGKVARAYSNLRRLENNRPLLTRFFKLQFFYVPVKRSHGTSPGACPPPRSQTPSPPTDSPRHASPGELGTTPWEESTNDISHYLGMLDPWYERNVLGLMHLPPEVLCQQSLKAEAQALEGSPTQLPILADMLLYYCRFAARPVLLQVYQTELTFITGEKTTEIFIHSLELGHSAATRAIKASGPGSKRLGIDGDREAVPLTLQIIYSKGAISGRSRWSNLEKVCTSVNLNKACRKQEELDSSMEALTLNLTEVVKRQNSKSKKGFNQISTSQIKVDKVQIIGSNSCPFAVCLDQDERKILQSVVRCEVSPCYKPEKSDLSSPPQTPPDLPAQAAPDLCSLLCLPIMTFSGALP

IC50 [nM]	Structure (SMILES)
121	O=C1NC(=S)S/C1=C\c1cc(F)c2c(c1)N(Cc1cc(C(F)(F)F)cc(C(F)(F)F)c1)C(=O)CO2 [Example 273, 4-(3,5-Bis-trifluoromethyl-benzyl)-8-fluoro-6-[4-oxo-2-thioxo-thiazolidin-(5Z)-ylidenemethyl]-4H-benzo[1,4]oxazin-3-one]
13	COCCOCOCc1cc(CN2C(=O)COc3ccc(/C=C4\SC(=S)NC4=O)cc32)cc(C(C)(C)C)c1 [Example 274, 4-[3-tert-Butyl-5-(2-methoxy-ethoxymethoxymethyl)-benzyl]-6-[4-oxo-2-thioxo-thiazolidin-(5Z)-ylidenemethyl]-4H-benzo[1,4]oxazin-3-one]
25	CC(C)(C)c1cc(CN2C(=O)COc3ccc(C=C4SC(=S)NC4=O)cc32)cc(C(=O)N2CCOCC2)c1 [Example 275, 4-[3-tert-Butyl-5-(morpholine-4-carbonyl)-benzyl]-6-(4-oxo-2-thioxo-thiazolidin-5-ylidenemethyl)-4H-1,4-benzoxazin-3-one; compound with ethane-1,2-diamine]
7	CC(C)(C)c1cc(CN2C(=O)COc3c(F)cc(/C=C4\SC(=O)NC4=O)cc32)cc(C(C)(C)O)c1 [Example 276, 5-[1-{4-[3-tert-Butyl-5-(1-hydroxy-1-methyl-ethyl)-benzyl]-8-fluoro-3-oxo-3,4-dihydro-2H-benzo[1,4]oxazin-6-yl}-meth-(Z)-ylidene]-thiazolidine-2,4-dione]
7	CC(C)(C)c1cc(CN2CCOCC2)cc(CN2C(=O)COc3ccc(/C=C4\SC(=S)NC4=O)cc32)c1 [Example 278, 4-(3-tert-Butyl-5-morpholin-4-ylmethyl-benzyl)-6-[4-oxo-2-thioxo-thiazolidin-(5Z)-ylidenemethyl]-4H-benzo[1,4]oxazin-3-one]
16	CN1CCN(C(=O)c2cc(CN3C(=O)COc4ccc(/C=C5\SC(=S)NC5=O)cc43)cc(C(C)(C)C)c2)CC1 [Example 279, 4-[3-tert-Butyl-5-(4-methyl-piperazine-1-carbonyl)-benzyl]-6-[4-oxo-2-thioxo-thiazolidin-(5Z)-ylidenemethyl]-4H-benzo[1,4]oxazin-3-one]
11	COC(C)(C)c1cc(CN2C(=O)COc3ccc(/C=C4\SC(=S)NC4=O)cc32)cc(C(C)(C)C)c1 [Example 283, 4-[3-tert-Butyl-5-(1-methoxy-1-methyl-ethyl)-benzyl]-6-[4-oxo-2-thioxo-thiazolidin-(5Z)-ylidenemethyl]-4H-benzo[1,4]oxazin-3-one]
10	CC(C)(C)c1cc(CO)cc(CN2C(=O)COc3c(F)cc(/C=C4\SC(=S)NC4=O)cc32)c1 [Example 284, 4-(3-tert-Butyl-5-hydroxymethyl-benzyl)-8-fluoro-6-[4-oxo-2-thioxo-thiazolidin-(5Z)-ylidenemethyl]-4H-benzo[1,4]oxazin-3-one]
21	CC(=O)OCc1cc(CN2C(=O)COc3c(F)cc(/C=C4\SC(=S)NC4=O)cc32)cc(C(C)(C)C)c1 [Example 285, Acetic acid 3-tert-butyl-5-{8-fluoro-3-oxo-6-[4-oxo-2-thioxo-thiazolidin-(5Z)-ylidenemethyl]-2,3-dihydro-benzo[1,4]oxazin-4-ylmethyl}-benzyl ester]
10	CS(=O)(=O)c1ccc(CN2C(=O)COc3c(F)cc(/C=C4\SC(=S)NC4=O)cc32)cc1 [Example 289, 8-Fluoro-4-(4-methanesulfonyl-benzyl)-6-[4-oxo-2-thioxo-thiazolidin-(5Z)-ylidenemethyl]-4H-benzo[1,4]oxazin-3-one; Compound with Ethane-1,2-diamine]
11	O=C1NC(=S)SC1=Cc1cc(F)c2c(c1)N(Cc1ccc(F)c(C(F)(F)F)c1)C(=O)CO2 [Example 292, 8-Fluoro-4-(4-fluoro-3-trifluoromethyl-benzyl)-6-(4-oxo-2-thioxo-thiazolidin-5-ylidenemethyl)-4-H-benzo[1,4]oxazin-3-one]
15	CC(C)(O)c1cc(Cl)cc(CN2C(=O)COc3c(F)cc(C=C4SC(=S)NC4=O)cc32)c1 [Example 293, 4-[3-Chloro-5-(1-hydroxy-1-methyl-ethyl)-benzyl]-8-fluoro-6-(4-oxo-2-thioxo-thiazoldin-5-ylidenemethyl)-4H-benzo[1,4]oxazin-3-one; Compound with Ethane-1,2-diamine]
3	CC(C)(O)c1ccc(CN2C(=O)COc3c(F)cc(C=C4SC(=S)NC4=O)cc32)cc1 [Example 294, 8-Fluoro-4-[4-(1-hydroxy-1-methyl-ethyl)-benzyl]-6-(4-oxo-2-thioxo-thiazolidin-5-ylidenemethyl)-4H-benzo[1,4]oxazin-3-one]
4	O=C1NC(=S)SC1=Cc1ccc2c(c1)N(Cc1cc(F)c(O)c(F)c1)C(=O)CO2 [Example 295, 4-(3,5-Difluoro-4-hydroxy-benzyl)-6-(4-oxo-2-thioxo-thiazolidin-5-ylidenemethyl)-4H-benzo[1,4]oxazin-3-one]
36	O=C1NC(=S)SC1=Cc1cc(F)c2c(c1)N(Cc1cc(Br)cc(Br)c1)C(=O)CO2 [Example 297, 4-(3,5-Dibromo-benzyl)-8-fluoro-6-(4-oxo-2-thioxo-thiazolidin-5-ylidenemethyl)-4H-benzo[1,4]oxazin-3-one]
6	COc1ccc(CN2C(=O)COc3c(F)cc(C=C4SC(=S)NC4=O)cc32)cc1C(F)(F)F [Example 299, 8-Fluoro-4-(4-methoxy-3-trifluoromethyl-benzyl)-6-(4-oxo-2-thioxo-thiazolidin-5-ylidenemethyl)-4H-benzo[1,4]oxazin-3-one]
1	O=C1NC(=S)SC1=Cc1cc(F)c2c(c1)N(Cc1ccc(F)cc1)C(=O)CO2 [Example 301, 8-Fluoro-4-(4-fluoro-benzyl)-6-(4-oxo-2-thioxo-thiazolidin-5-ylidenemethyl)-4H-benzo[1,4]oxazin-3-one]

Further lines, the compound ahead of its results:

Structure (SMILES)	IC50 [nM]
CC(C)(C)c1cc(CN2CCOCC2)cc(CN2C(=O)COc3ccc(/C=C4\SC(=O)NC4=O)cc32)c1 [Example 277, 5-[1-[4-(3-tert-Butyl-5-morpholin-4-ylmethyl-benzyl)-3-oxo-3,4-dihydro-2H-benzo[1,4]oxazin-6-yl]-meth-(Z)-ylidene]-thiazolidine-2,4-dione]	5
CN1CCN(C(=O)c2ccc(CN3C(=O)COc4ccc(/C=C5\SC(=S)NC5=O)cc43)cc2)CC1 [Example 280, 4-[4-(4-Methyl-piperazine-1-carbonyl)-benzyl]-6-[4-oxo-2-thioxo-thiazolidin-(5Z)-ylidenemethyl]-4H-benzo[1,4]oxazin-3-one]	8
O=C1NC(=S)S/C1=C\c1ccc2c(c1)N(Cc1ccc(C(=O)N3CCOCC3)cc1)C(=O)CO2 [Example 281, 4-[4-(Morpholine-4-carbonyl)-benzyl]-6-[4-oxo-2-thioxo-thiazolidin-(5Z)-ylidenemethyl]-4H-benzo[1,4]oxazin-3-one]	8
CC(C)(O)c1cccc(CN2C(=O)COc3ccc(/C=C4\SC(=S)NC4=O)cc32)c1 [Example 282, 4-[3-(1-Hydroxy-1-methyl-ethyl)-benzyl]-6-[4-oxo-2-thioxo-thiazolidin-(5Z)-ylidenemethyl]-4H-benzo[1,4]oxazin-3-one; Compound with ethane-1,2-diamine]	13
O=C1NC(=S)S/C1=C\c1ccc2oc(=O)n(Cc3ccc(Cl)c(Cl)c3)c2c1 [Example 286, 3-(3,4-Dichloro-benzyl)-5-[4-oxo-2-thioxo-thiazolidin-(5Z)-ylidenemethyl]-3H-benzooxazol-2-one]	220
O=C1NC(=S)S/C1=C\c1ccc2c(c1)N(Cc1ccc(I)cc1)C(=O)CO2 [Example 287, 4-(4-Iodo-benzyl)-6-[4-oxo-2-thioxo-thiazolidin-(5Z)-ylidenemethyl]-4H-benzo[1,4]oxazin-3-one]	16
O=C1NC(=S)S/C1=C\c1ccc2c(c1)N(Cc1ccc(C(=O)O)cc1)C(=O)CO2 [Example 288, 4-{3-oxo-6-[4-oxo-2-thioxo-thiazolidin-(5Z)-ylidenemethyl]-2,3-dihydro-benzo[1,4]oxazin-4-ylmethyl}-benzoic acid; Compound with ethane-1,2-diamine]	35
O=C1NC(=S)S/C1=C\c1ccc2oc(=O)n(Cc3ccccc3)c2c1 [Example 290, 3-Benzyl-5-[4-oxo-2-thioxo-thiazolidin-(5Z)-ylidenemethyl]-3H-benzooxazol-2-one; Compound with Ethane-1,2-diamine]	243
CS(=O)(=O)c1ccc(Cn2c(=O)oc3ccc(C=C4SC(=S)NC4=O)cc32)cc1 [Example 291, 3-(4-Methanesulfonyl-benzyl)-5-(4-oxo-2-thioxo-thiazolidin-5-ylidenemethyl)-3H-benzoxazol-2-one; Compound with Ethane-1,2-diamine]	433
O=C(O)CN1C(=O)C(=Cc2cc(F)c3c(c2)N(Cc2ccc(F)c(Cl)c2)C(=O)CO3)SC1=S [Example 296, {5-[4-(3-Chloro-4-fluoro-benzyl)-8-fluoro-3-oxo-3,4-dihydro-2H-benzo[1,4]oxazin-6-ylmethylene]-4-oxo-2-thioxo-thiazolidin-3-yl}-acetic acid; compound with ethane-1,2-diamine]	3850
O=C1NC(=O)C(=Cc2cc(F)c3c(c2)N(Cc2ccc(F)cc2)C(=O)CO3)S1 [Example 298, 5-[8-Fluoro-4-(4-fluoro-benzyl)-3-oxo-3,4-dihydro-2H-benzo[1,4]oxazin-6-ylmethylene]-thiazolidine-2,4-dione]	1
O=C1NC(=S)OC1=Cc1cc(F)c2c(c1)N(Cc1ccc(F)c(Cl)c1)C(=O)CO2 [Example 300, 4-(3-Chloro-4-fluoro-benzyl)-8-fluoro-6-(4-oxo-2-thioxo-oxazolidin-5-ylidenemethyl)-4H-benzo[1,4]oxazin-3-one]	3
